In ChEMBL document CHEMBL6092154, “Design, synthesis, and evaluation of a novel TRAIL-activated HDAC6 inhibitor for the treatment of pulmonary fibrosis” (Bioorg Med Chem, 2024):
Activity calls are given as the source filed them. No cut-off for these calls is given here.

Legend:
[1] = target: T1, Histone deacetylase 8 (Homo sapiens) (UniProt Q9BY41); assay: Inhibition of HDAC8 (unknown origin) at 1 uM incubated for 30 mins by fluorometric analysis
T1 sequence (whole entry): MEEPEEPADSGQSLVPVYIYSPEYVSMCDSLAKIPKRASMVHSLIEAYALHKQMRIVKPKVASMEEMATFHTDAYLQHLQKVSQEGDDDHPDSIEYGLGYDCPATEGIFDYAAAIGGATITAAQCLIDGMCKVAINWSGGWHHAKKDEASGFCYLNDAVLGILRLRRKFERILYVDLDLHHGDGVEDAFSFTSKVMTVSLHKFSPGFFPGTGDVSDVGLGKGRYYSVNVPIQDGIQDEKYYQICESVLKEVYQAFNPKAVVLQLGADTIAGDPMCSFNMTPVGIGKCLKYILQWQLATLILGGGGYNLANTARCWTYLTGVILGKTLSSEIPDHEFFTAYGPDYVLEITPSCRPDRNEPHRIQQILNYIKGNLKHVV

[2] = tested on: Mus musculus; assay: Anti-pulmonary fibrosis activity in bleomycin-induced idiopathic pulmonary fibrosis C57BL/6J mouse model assessed as decrease in lung damage by measuring decrease in collagen deposition in lung at 25 to 50 mg/kg, ig administered daily via gavage and measured on day 14 by Sirius red staining based analysis; assay type: functional, organism-based; conditions: dose 25-50 mg/kg, time 14.0 day
[3] = target: T2, Protein deacetylase HDAC6 (Mus musculus) (UniProt Q9Z2V5); assay: In vivo inhibition of HDAC6 in bleomycin-induced idiopathic pulmonary fibrosis C57BL/6J mouse model assessed as increase in acetylated alpha-tubulin level in lung at 50 mg/kg, ig administered via gavage and measured on day 14 by western blot analysis; assay type: functional, organism-based; conditions: time 14.0 day
T2 sequence (whole entry): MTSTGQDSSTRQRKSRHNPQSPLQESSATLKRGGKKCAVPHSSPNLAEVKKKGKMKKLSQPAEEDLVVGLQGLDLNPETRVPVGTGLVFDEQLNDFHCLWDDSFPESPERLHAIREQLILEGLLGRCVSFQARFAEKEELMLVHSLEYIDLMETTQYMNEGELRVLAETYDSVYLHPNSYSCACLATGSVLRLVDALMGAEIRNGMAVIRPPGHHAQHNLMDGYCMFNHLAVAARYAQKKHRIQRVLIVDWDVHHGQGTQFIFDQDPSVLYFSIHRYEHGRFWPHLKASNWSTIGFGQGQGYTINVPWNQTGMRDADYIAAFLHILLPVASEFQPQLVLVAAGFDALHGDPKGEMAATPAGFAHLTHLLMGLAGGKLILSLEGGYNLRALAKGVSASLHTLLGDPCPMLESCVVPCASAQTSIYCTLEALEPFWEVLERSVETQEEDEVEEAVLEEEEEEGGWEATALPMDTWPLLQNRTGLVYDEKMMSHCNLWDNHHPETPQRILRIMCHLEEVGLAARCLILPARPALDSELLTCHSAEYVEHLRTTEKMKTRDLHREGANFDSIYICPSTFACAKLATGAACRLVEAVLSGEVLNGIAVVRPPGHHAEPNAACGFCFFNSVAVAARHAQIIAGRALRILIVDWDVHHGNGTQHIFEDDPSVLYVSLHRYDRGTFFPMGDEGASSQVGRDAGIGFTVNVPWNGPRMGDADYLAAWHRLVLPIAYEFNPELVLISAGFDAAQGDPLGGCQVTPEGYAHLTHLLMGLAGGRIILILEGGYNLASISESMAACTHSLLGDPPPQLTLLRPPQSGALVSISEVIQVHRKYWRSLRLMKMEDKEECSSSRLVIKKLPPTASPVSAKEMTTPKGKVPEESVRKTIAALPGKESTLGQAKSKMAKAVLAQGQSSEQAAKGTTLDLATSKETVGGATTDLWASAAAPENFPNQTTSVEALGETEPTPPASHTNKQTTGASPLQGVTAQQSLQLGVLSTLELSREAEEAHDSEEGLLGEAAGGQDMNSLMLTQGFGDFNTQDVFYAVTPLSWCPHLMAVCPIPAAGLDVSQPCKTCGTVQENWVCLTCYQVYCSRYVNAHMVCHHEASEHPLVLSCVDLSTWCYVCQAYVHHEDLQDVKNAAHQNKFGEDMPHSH

SMILES: O=C(NO)c1ccc(CN2C(=O)C3=C(CCN(Cc4cccc(Cl)c4)C3)N3CCN=C23)cc1
- inhibition [1]: 76.2%
- Activity [2]: Active
- inhibition [3]: Active; Levels Lower Than The Positive Control, Acy-1215
